From patent publication US20180193412A1, “Method of In Vivo Treatment” (Hexima Limited, priority 2015, published 2018)

How the values were obtained:
E. coli = assay type: cell-based, Escherichia coli; settings: for IC50: Mueller-Hinton Broth, 37° C., 18 hours, up to 20 μM, read-out: IC50 against E. coli
Protocol: (§1) A single E. coli or B. subtilis colony was used to inoculate 5 ml of Luria-Bertani media and grown overnight at 37° C. The following day, the optical density of the culture was measured and the bacteria diluted to an optical density at 600 nm (OD600) of 0.01 in Mueller-Hinton Broth. Diluted E. coli or B. subtilis were added to 96-well plates with defensins at concentrations of 20 μM, 10 μM, 5 μM, 2.5 μM, 1.25 μM, 0.625 μM or 0.3125 μM. Plates were read at OD595 to obtain time zero data points. Plates were incubated at 37° C. for 18 hours before reading again at OD595 to assess the amount of bacterial growth.

B. subtilis = assay: Inhibition of the growth of Bacillus subtilis (OD595, 18 hours); assay type: cell-based; settings: for IC50: Mueller-Hinton Broth, 37° C., 18 hours, up to 20 μM, read-out: IC50 against B. subtilis
Protocol: as §1

C. glabrata = assay: Inhibition of growth of C. glabrata, Example 2 antifungal assay; assay type: cell-based; settings: ½ strength PDB, 30° C., A595
Protocol: (§2) The inhibitory effects of the plant defensins on the growth of Candida albicans, Aspergillus fumigatus (obtained from the National Mycology Reference Centre, South Australia Pathology at the Women's and Children's Hospital, Adelaide, Australia), C. glabrata, C. tropicalis, A. flavus, A. niger, A. fumigants, Cryptococcus neoformans and C. gattii (obtained from Dee Carter, University of Sydney, New South Wales, Australia) are measured essentially as described by Broekaert et al. (1990) FEMS Microbiol Lett 69:55-59.
(§3) Spores of A. flavus. A. niger and A. fumigatus are isolated from sporulating fungus growing on ½ strength Sabouraud dextrose agar. Spores were removed from the plates by the addition of ½ strength potato dextrose broth (PDB). C. albicans, C. glabrata, C. tropicalis, C. neoformans and C. gattii cells are grown in Yeast Peptone Broth (YPD) for 16 h. Spore and cell concentrations are measured using a hemocytometer.
(§4) Antifungal assays are conducted in 96 well microtitre plates essentially as herein described. Wells are loaded with 20 μL of filter sterilized (0.22 μm syringe filter, Millipore) defensin (10× stock for each final concentration) or water and 80 μL of 5×10^4 spores/mL (A. flavus, A. niger, A. fumigatus), 5,000 cells/mL (C. albicans, C. glabrata, C. tropicalis) or 1×10^6 cells/mL (C. neoformans, C. gattii) in ½ strength PDB. The plates are incubated at 30° C. Fungal growth is assayed by measuring optical density at 595 nm (A595) using a microtitre plate reader (SpectraMax Pro M2; Molecular Devices. Growth is allowed to proceed until the optical density (OD) of the fungus in the absence of any test defensin reached an OD of 0.2. Each test is performed in duplicate.

A. fumigatus = assay: Inhibition of growth of Aspergillus fumigatus, Example 2 antifungal assay; assay type: cell-based; settings: ½ strength PDB, 30° C., A595
Protocol: as §2, §3, §4

C. gattii = assay: Inhibition of growth of C. gattii, Example 2 antifungal assay; assay type: cell-based; settings: ½ strength PDB, 30° C., A595
Protocol: as §2, §3, §4

A. flavus = assay: Inhibition of growth of A. flavus, Example 2 antifungal assay; assay type: cell-based; settings: ½ strength PDB, 30° C., A595
Protocol: as §2, §3, §4

T. interdigitale = assay: Inhibition of growth of T. interdigitale by plant defensins (microtitre A595 antifungal assay); assay type: cell-based, Trichophyton interdigitale; settings: ½ strength PDB, 30° C.
Protocol: (§5) The inhibitory effects of the plant defensins on the growth of Trichophyton rubrum, T. interdigitale, Microsporum fulvum and C. albicans (all obtained from the National Mycology Reference Centre, South Australia Pathology at the Women's and Children's Hospital, Adelaide, Australia) are measured essentially as described by Broekaert et al. (1990) FEMS Microbiol Lett 69:55-59.
as §3, with “T. rubrum, T. interdigitale” for “A. flavus. A. niger”, “M. fulvum” for “A. fumigatus”, “albicans” for “albicans, C. glabrata, C. tropicalis, C. neoformans and C. gattii”
as §4, with “Ξ m” for “μm”, “(T. rubrum, T. interdigitale, M. fulvum) or” for “(A. flavus, A. niger, A. fumigatus),”, “albicans)” for “albicans, C. glabrata, C. tropicalis) or 1×10^6 cells/mL (C. neoformans, C. gattii)”

C. tropicalis = assay: Inhibition of growth of C. tropicalis, Example 2 antifungal assay; assay type: cell-based; settings: ½ strength PDB, 30° C., A595
Protocol: as §2, §3, §4

M. fulvum = assay: Inhibition of growth of Microsporum fulvum by plant defensins (microtitre A595 antifungal assay); assay type: cell-based; settings: ½ strength PDB, 30° C., A595
Protocol: as §5
as §3, with “T. rubrum, T. interdigitale” for “A. flavus. A. niger”, “M. fulvum” for “A. fumigatus”, “albicans” for “albicans, C. glabrata, C. tropicalis, C. neoformans and C. gattii”
as §4, with “Ξ m” for “μm”, “(T. rubrum, T. interdigitale, M. fulvum) or” for “(A. flavus, A. niger, A. fumigatus),”, “albicans)” for “albicans, C. glabrata, C. tropicalis) or 1×10^6 cells/mL (C. neoformans, C. gattii)”

T. rubrum = assay: Inhibition of growth of Trichophyton rubrum by plant defensins (microtitre A595 antifungal assay); assay type: cell-based; settings: ½ strength PDB, 30° C.
Protocol: as §5
as §3, with “T. rubrum, T. interdigitale” for “A. flavus. A. niger”, “M. fulvum” for “A. fumigatus”, “albicans” for “albicans, C. glabrata, C. tropicalis, C. neoformans and C. gattii”
as §4, with “Ξ m” for “μm”, “(T. rubrum, T. interdigitale, M. fulvum) or” for “(A. flavus, A. niger, A. fumigatus),”, “albicans)” for “albicans, C. glabrata, C. tropicalis) or 1×10^6 cells/mL (C. neoformans, C. gattii)”

C. neoformans = assay: Inhibition of growth of Cryptococcus neoformans, Example 2 antifungal assay; assay type: cell-based; settings: ½ strength PDB, 30° C., A595
Protocol: as §2, §3, §4

C. albicans = assay: Inhibition of growth of Candida albicans, Example 2 antifungal assay; assay type: cell-based; settings: Table 4; ½ strength PDB, 30° C., A595
Protocol: as §2, §3, §4

A. niger = assay: Inhibition of growth of A. niger, Example 2 antifungal assay; assay type: cell-based; settings: ½ strength PDB, 30° C., A595
Protocol: as §2, §3, §4

T. albicans = assay: Inhibition of growth of C. albicans by plant defensins, Example 1 (microtitre A595 antifungal assay); assay type: cell-based; settings: Table 3; ½ strength PDB, 30° C., A595
Protocol: as §5
as §3, with “T. rubrum, T. interdigitale” for “A. flavus. A. niger”, “M. fulvum” for “A. fumigatus”, “albicans” for “albicans, C. glabrata, C. tropicalis, C. neoformans and C. gattii”
as §4, with “Ξ m” for “μm”, “(T. rubrum, T. interdigitale, M. fulvum) or” for “(A. flavus, A. niger, A. fumigatus),”, “albicans)” for “albicans, C. glabrata, C. tropicalis) or 1×10^6 cells/mL (C. neoformans, C. gattii)”

[1] = test system: Trichophyton rubrum, T. interdigitale, Microsporum fulvum and C. albicans; assay: Inhibition assays of Example 1, summary across the range of fungal pathogens; assay type: cell-based; settings: summary of Table 3, at the concentrations tested
Protocol: as §5
as §3, with “T. rubrum, T. interdigitale” for “A. flavus. A. niger”, “M. fulvum” for “A. fumigatus”, “albicans” for “albicans, C. glabrata, C. tropicalis, C. neoformans and C. gattii”
as §4, with “Ξ m” for “μm”, “(T. rubrum, T. interdigitale, M. fulvum) or” for “(A. flavus, A. niger, A. fumigatus),”, “albicans)” for “albicans, C. glabrata, C. tropicalis) or 1×10^6 cells/mL (C. neoformans, C. gattii)”

[2] = at the concentrations tested (0.3125-20 μM)

Row | Substance | IC50 (E. coli) [µM] | IC50 (B. subtilis) [µM] | IC50 against C. glabrata (C. glabrata) [µg/mL] | IC50 against A. fumigatus (A. fumigatus) [µg/mL] | IC50 against C. gattii (C. gattii) [µg/mL] | IC50 against A. flavus (A. flavus) [µg/mL] | IC50 against T. interdigitale (T. interdigitale) [µg/mL] | IC50 against C. tropicalis (C. tropicalis) [µg/mL] | IC50 against M. fulvum (M. fulvum) [µg/mL] | IC50 against T. rubrum (T. rubrum) [µg/mL] | IC50 against C. neoformans (C. neoformans) [µg/mL] | IC50 against C. albicans (C. albicans) [µg/mL] | IC50 against A. niger (A. niger) [µg/mL] | IC50 against T. albicans (T. albicans) [µg/mL] | Activity across the range of fungal pathogens [1] | Inhibition of growth of E. coli (E. coli; [2]) | Inhibition of growth of B. subtilis (B. subtilis; [2])
1 | HXL004: Class I plant defensin from Nicotiana benthamiana (RTCESQSHRFKGLCFSRSNCASVCHTEGFNGGHCRGFRRRCFCTRHC; HXL004 Nicotiana benthamiana) | 2.5 | 2.6 | 20 | 20 | 20 | >100 | 19 | 5 | 12 | 27.5 | 7 | 20 | 45 | 20 | intermediate activity |  | 
2 | HXL005: Class I plant defensin from Taraxcum kok-saghyz (KMCQTTSHAFSCVNDSGCSGSCEKQGFASGKCDGVRRRCTCYKKC; HXL005 Taraxcum kok-saghyz) | > 20 | > 20 | 11 | 11 | 14 | 25 | 3.5 | 12 | 5 | 3 | 5 | 22 | 7.5 | 22 | most effective | did not inhibit the growth | did not inhibit the growth
3 | HXL012: Class I plant defensin from Amaranthus retroflexus (RMCKAPSKLFRGMCGIRDSNCDSVCRAEGMAAGDCHGLRRRCICSRPC; HXL012 Amaranthus retroflexus) | > 20 | 20 | >100 | 15 | 38 | 45 | 2 | 10 | 18 | 2 | 8 | 42 | 12.5 | 42 | intermediate activity |  | 
4 | HXL035: Class I plant defensin from Picramnia pentandra (KVCTKPSKFFKGLCGFDRDCTVACKKEGLASGFCQNKGFFNVVCVCRKPC; HXL035 Picramnia pentandra) |  |  | 10 | 7.5 | 20 | 25 | 1 | 6 | 2 | 2 | 5 | 18 | 6 | 18 | most effective |  | 
